From ChEMBL document CHEMBL1155657, “Triterpene glycosides from the Far-Eastern sea cucumber Pentamera calcigera. 1. Monosulfated glycosides and cytotoxicity of their unsulfated derivatives” (J Nat Prod, 2000)

Legend:
Type in all cases: functional, cell-based
P388 = test: Cytotoxicity against mouse P388 cells
A549 = test: Cytotoxicity against human A549 cells
HT-29 = test: Cytotoxicity against human HT29 cells
[1] = Cytotoxicity against human MEL-28 cells; settings: SK-MEL-28

Measured: IC50

C=C(C)[C@H]1[C@@H]2C[C@@]3(C)C4=CC[C@H]5C(C)(C)[C@@H](O[C@@H]6OC[C@@H](O)[C@H](O)[C@H]6O[C@@H]6O[C@H](C)[C@@H](O[C@@H]7O[C@H](CO)[C@@H](O)[C@H](O[C@@H]8OC[C@@H](O)[C@H](OC)[C@H]8O)[C@H]7O)[C@H](O)[C@H]6O[C@@H]6O[C@H](CO)[C@@H](O)[C@H](O)[C@H]6O)CC[C@]5(C)[C@@H]4CC[C@]13C(=O)O2
5 µg/mL: P388 | A549 | HT-29 | [1]

C=C(C)[C@H]1[C@@H]2C[C@@]3(C)C4=CC[C@H]5C(C)(C)[C@@H](O[C@@H]6OC[C@@H](O)[C@H](O)[C@H]6O[C@@H]6O[C@H](C)[C@@H](O[C@@H]7O[C@H](CO)[C@@H](O)[C@H](O[C@@H]8OC[C@@H](O)[C@H](OC)[C@H]8O)[C@H]7O)[C@H](O)[C@H]6O[C@@H]6O[C@H](C)[C@@H](O)[C@H](O)[C@H]6O)CC[C@]5(C)[C@@H]4CC[C@]13C(=O)O2
5 µg/mL: P388 | A549 | HT-29 | [1]
